Assay results reported in PubChem BioAssay (NCI).
Values joined by “and” are separate entries in the source; they are usually repeats but may differ in a detail not shown here. Identical values can stand only once.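 48-hour exposure; five concentrations; linearly interpolated endpoints. Abbreviation: GI50, concentration required for 50% inhibition of growth. TGI marks complete inhibition of growth.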

Tests used:
Test in all cases: NCI anticancer screen, dose series, 48 h
HS 578T breast = system: HS 578T breast
NCI/ADR-RES ovarian = system: NCI/ADR-RES ovarian
DU-145 prostate = system: DU-145 prostate
MDA-N = system: MDA-N
M19-MEL melanoma = system: M19-MEL melanoma
KM20L2 colon = system: KM20L2 colon
SNB-78 CNS = system: SNB-78 CNS

| Structure (SMILES) | TGI (HS 578T breast) | TGI (NCI/ADR-RES ovarian) | GI50 (DU-145 prostate) | TGI (DU-145 prostate) | GI50 (HS 578T breast) | GI50 (NCI/ADR-RES ovarian) | TGI (MDA-N) | TGI (M19-MEL melanoma) | TGI (KM20L2 colon) | TGI (SNB-78 CNS) |
| --- | --- | --- | --- | --- | --- | --- | --- | --- | --- | --- |
| CCCCCCCCCCCCCCCCCc1cc(Cl)nc(Cl)n1 | > 100 µM | > 100 µM |  |  |  |  |  |  |  |  |
| COc1ccc2c(c1)O/C(=C\c1ccc([N+](=O)[O-])o1)C2=O | 7.32 µM | > 30.1 µM | 0.775 µM | 7.94 µM | 2.36 µM | 2.74 µM |  |  |  |  |
| CCN(CC)c1ccc(CNc2cc(C)nc3ccc(OC)cc23)cc1 | 6.73 µM | 14.3 µM | 6.17 µM | 18.6 µM | 2.32 µM | 3.08 µM |  |  |  |  |
| O=C(NCCN1CCOCC1)Nc1nc2ccc(Sc3nnc4ccc(-c5ccc(F)cc5)nn34)cc2s1 |  | > 100 µM | > 100 µM | > 100 µM |  | > 100 µM |  |  |  |  |
| CC[C@]12C=CCN3CC[C@@]4(c5ccc(OC)cc5N(C)[C@H]4[C@@](O)(C(=O)OC)[C@@H]1OC(=O)CCCC[P+](c1ccccc1)(c1ccccc1)c1ccccc1)[C@@H]32 | 9.11 µM | > 100 µM | 0.875 µM | 13.2 µM | 1.34 µM | > 100 µM |  |  |  |  |
| COC1=CC(=O)c2c(O)c3c(c(O)c2C1=O)OC1(Oc2c(cc4cc(C)oc(=O)c4c2O)CC1O)C3O (stereo not drawn) | > 100 µM | > 100 µM |  | > 100 µM |  |  | 42.9 µM |  |  |  |
| COc1ccccc1CN=C1NC(=O)/C(=C/c2ccc3ncccc3c2)S1 | > 24.1 µM | > 25 µM | 11 µM | > 25 µM | 6.61 µM | 11.2 µM |  |  |  |  |
| O=C1/C(=N/N=C(c2ccccc2)c2ccccc2)c2ccccc2-c2ccccc21 | > 100 µM | > 100 µM |  | > 100 µM |  |  |  |  |  |  |
| C=CCNC(=O)ON1C(=O)CCC1=O |  |  |  |  |  |  |  | > 100 µM | > 100 µM | > 100 µM |
| Cc1cc(C)nc(NS(=O)(=O)c2ccc(Nc3nc4nc(NCc5ccccc5)nc(-c5ccc(O)cc5)c4c(=O)[nH]3)cc2)n1 | 88.6 µM | > 100 µM | 25.9 µM | > 100 µM | 14.6 µM | > 100 µM |  |  |  |  |
| Nc1nc(=O)c2[nH]cnc2n1O | > 100 µM | > 100 µM |  | > 100 µM |  |  | > 100 µM |  |  |  |
| Cc1cc(NCCCNc2ccnc3cc(Cl)ccc23)nc(Nc2ccc(C(=O)N3CCCCC3)cc2)n1 | 6.38 µM | 35.9 µM | 3.42 µM | 13.1 µM | 2.68 µM | 14.9 µM |  |  |  |  |
| O=c1[nH]ccc2nc(N3CCC(O)CC3)nc(Nc3ccc(N4CCOCC4)cc3)c12 | 9.03 µM | > 100 µM | 2.95 µM | > 100 µM | 2.01 µM | > 100 µM |  |  |  |  |
| COc1ccc(-c2cc(=O)c3c(OC)c(O)c(OC)cc3o2)cc1 | > 100 µM | > 100 µM |  | > 100 µM |  |  | > 100 µM |  |  |  |
| O=C(/C=C/c1ccccc1)Nc1ncc(Cc2ccccc2)s1 | 20.8 µM | 5.5 µM | 0.396 µM | > 100 µM | 0.287 µM | 0.178 µM |  |  |  |  |
| O=c1ncc(I)c[nH]1 | > 100 µM | > 100 µM | > 100 µM | > 100 µM | > 100 µM | > 100 µM |  |  |  |  |
| Cc1ccc(C(=O)Nc2ccc(CN3CCN(C)CC3)c(C(F)(F)F)c2)cc1C#Cc1cnc(N)c2ccc(C#N)cc12 | > 23.9 µM | 10.1 µM | 0.0403 µM | 7.39 µM | 0.161 µM | 2.03 µM |  |  |  |  |
| COc1ccc(-c2c(-c3cc4c(c(OC)c3OC)OCO4)noc2N)cc1 | > 100 µM | 0.741 µM | 0.502 µM | > 100 µM | 0.365 µM | 0.131 µM |  |  |  |  |
| COc1ccc2c3c(ccc2c1)NC(C(=O)O)CC3 (stereo not drawn) | > 100 µM | > 100 µM |  | > 100 µM |  |  | > 100 µM |  |  |  |
| C/C(=N\NC(=O)c1cccc(S(=O)(=O)N2CCN(C)CC2)c1)c1cc(Cl)ccc1O | > 74.8 µM | 14.9 µM | 1.15 µM | > 100 µM | 4.54 µM | 1.33 µM |  |  |  |  |
| C[C@@]1([C@H](OC(=O)c2cccc3ccccc23)C(N)=O)CO1 | > 24.6 µM | 4.8 µM | 1.61 µM | 5.64 µM | 3.59 µM | 0.54 µM |  |  |  |  |
| CN(C)c1ccc(/C=N/NC(=O)CSc2nc3sc4c(c3c(=O)n2-c2ccccc2)CCCCC4)cc1 | 40.5 µM | > 100 µM | 3.41 µM | > 100 µM | 3.85 µM | 7.85 µM |  |  |  |  |
| COc1ccc2nc(-c3ccc(Cl)cc3)cc(-c3nnc(SCC(=O)Nc4ccc(/C(C)=N\O)cc4)o3)c2c1 | 17.9 µM | 3.75 µM | 1.52 µM | 5.53 µM | 2.77 µM | 1.29 µM |  |  |  |  |

| Structure (SMILES) | TGI (HS 578T breast) | TGI (NCI/ADR-RES ovarian) | GI50 (DU-145 prostate) | TGI (DU-145 prostate) | GI50 (HS 578T breast) | GI50 (NCI/ADR-RES ovarian) | TGI (MDA-N) | TGI (M19-MEL melanoma) | TGI (KM20L2 colon) | TGI (SNB-78 CNS) |
| --- | --- | --- | --- | --- | --- | --- | --- | --- | --- | --- |
| COc1ccc(-c2cnc(SCC(=O)c3c(C)n(C)n(-c4ccccc4)c3=O)n2-c2ccc(OC)cc2)cc1 | > 50 µM | > 50 µM | 9.13 µM | > 50 µM | 42.6 µM | > 50 µM |  |  |  |  |
| CN(C)C(=O)C(NCCO)c1ccccc1 (stereo not drawn) | > 100 µM |  |  | > 100 µM |  |  | > 100 µM |  |  |  |
| CC(C)C[C@H](NC(=O)[C@H](Cc1ccccc1)NC(=O)c1cnccn1)B(O)O |  |  | 0.00311 µM |  | < 0.01 µM and 0.00192 µM | 0.0613 µM |  |  |  |  |
| CN(Cc1ccccc1)c1ncnc2ccc(Br)cc12 | 27.8 µM | 33.3 µM | 14.6 µM | 28.7 µM | 11.5 µM | 8.94 µM |  |  |  |  |
| N#Cc1c(N)n(C2OC(CO)C(O)C2O)c2ncnc(N)c12 (stereo not drawn) | 2.16 µM | 0.137 µM |  | > 17.4 µM |  |  |  |  |  |  |
| COc1ccc(C(=C(C#N)C#N)c2ccc(OC)cc2)cc1 |  |  |  |  |  |  |  |  | > 100 µM | > 100 µM |
| C=CC1CC12C(=O)C1OC2(C)C2C(=O)c3c(O)cccc3C(=O)C12 (stereo not drawn) | 88.3 µM | 84.1 µM |  |  | 21.8 µM | 27.9 µM |  |  |  |  |
| Nc1c(C(=O)c2cccc(C(O)(CO)CO)c2)cnn1-c1ccc(F)cc1 | > 25 µM | > 25 µM | > 25 µM | > 25 µM | > 25 µM | > 25 µM |  |  |  |  |
| N=C(N)c1ccc(CS(=O)(=O)F)cc1 | > 100 µM | > 100 µM | > 100 µM | > 100 µM | > 100 µM | > 100 µM |  |  |  |  |
| O=C1c2cccc3c([N+](=O)[O-])ccc(c23)C(=O)N1CCCCl | > 10 µM | > 10 µM | 4.56 µM | > 10 µM | 4.6 µM | 8.42 µM |  |  |  |  |
| C[C@]12CC/C(=N\O)C[C@@H]1CC[C@@H]1[C@@H]2CC[C@]2(C)/C(=N/O)CC[C@@H]12 |  | > 100 µM | 80.7 µM | > 100 µM |  | 44.2 µM |  |  |  |  |
| O=S1(=O)OCc2ccccc21 | > 100 µM | > 100 µM |  | > 100 µM |  |  | > 100 µM |  |  |  |
| OCCNC(=S)Nc1ccc(-c2nc(N3C[C@H]4CC[C@@H](C3)O4)c3cccn3n2)cc1 | 0.248 µM | 2.16 µM | 0.0987 µM | 24.2 µM | 0.0221 µM | 0.172 µM |  |  |  |  |
| COc1ccc(C2CC(c3ccc4ccccc4c3)=NN2/C=C2\SC(=S)N(NC(=O)Cc3ccccc3Nc3c(Cl)cccc3Cl)C2=O)cc1 (stereo not drawn) | > 37.6 µM | > 34.5 µM | 0.404 µM | 27.1 µM | 0.415 µM | 0.421 µM |  |  |  |  |
| CS(=O)(=O)c1nccc(-c2c(-c3cccc(OCc4ccccc4)c3)nc3sccn23)n1 | > 100 µM | > 100 µM | 1.76 µM | 3.31 µM | 12.9 µM | 20.3 µM |  |  |  |  |
| COc1cc(/C=C/C(=O)c2ccc(F)cc2)ccc1OCCCCOc1cc2c(cc1OC)C(=O)N1CCCC1C=N2 (stereo not drawn) | 9.36 µM | > 26.4 µM | 0.994 µM | 5.46 µM | 0.336 µM | 0.936 µM |  |  |  |  |
| COc1ccc(C(=O)OC2C(OC3C(O)COC(O[C@H]4C[C@H]5[C@@H]6CC=C7C[C@@H](O)CC[C@]7(C)[C@H]6CC[C@]5(C)[C@H]4[C@H](C)C(=O)CCC(C)C)C3OC(=O)C(C)C)OCC(O)C2O)cc1 (stereo partly drawn) | 0.0441 µM | 7.2 µM | 0.017 µM | 4.65 µM | 0.00343 µM | 3.32 µM |  |  |  |  |
| NNC(=O)C(O)C(O)C(O)CO (stereo not drawn) | > 100 µM | > 100 µM |  | > 100 µM |  |  | > 100 µM |  |  |  |
| O=C1C2=C(C(=O)c3c(O)ccc(O)c31)N(c1cccnc1)Cc1ccccc1O2 |  | > 25.9 µM | 0.351 µM | 1.17 µM |  | 0.861 µM |  |  |  |  |
| CC1=CC[C@@H]2[C@@H](CC[C@@]2(C)O)C(C)(C)[C@H]1CC[C@@H]1[C@@]2(C)CC[C@@H](O)C(C)(C)O[C@@H]2CC[C@]1(C)O |  |  |  | > 100 µM |  |  | 53.2 µM |  |  |  |
| CC/C=C\C[C@H](O)C/C=C1/C(=O)C=C[C@@H]1C/C=C\CCCC(=O)OCCS(=O)(=O)c1ccccc1 | > 100 µM | 20.5 µM | 5.24 µM | 17.8 µM | 23.9 µM | 3.43 µM |  |  |  |  |
| C=C(C)[C@@H]1CC[C@]2(C(=O)N3CCN(C)CC3)CC[C@]3(C)[C@H](CC[C@@H]4[C@@]5(C)C/C(=C/c6ccncc6)[C@H](O)C(C)(C)[C@@H]5CC[C@]43C)[C@@H]12 | > 100 µM | 23.2 µM | 9.53 µM | 24 µM | 11.6 µM | 4.81 µM |  |  |  |  |
